Test [1] has as its target Protein kinase C alpha type (Homo sapiens, UniProt P17252). Put plainly: Inhibition of human PKCalpha activity using neurogranin as a substrate in presence of 50 uM ATP by mass spectrometry.
Test [2] concerns the target cAMP-dependent protein kinase catalytic subunit beta (Homo sapiens, UniProt P22694). Put plainly: Inhibition of PKA activity using kemptide as a substrate in presence of 50 uM ATP by mass spectrometry.

Consider `CN(C)CCCn1cc(NC(=O)Nc2nccc(-c3ccccc3)n2)c2ccccc21`, for which the IC50 – broadly, the concentration that gives 50% inhibition – in test [1] came out at 0.095 µM; in test [2] it was 23.6 µM. As for `CCN(CC)CCCn1cc(NC(=O)Nc2ccnc(-c3ccccc3)n2)c2ccccc21`, the IC50 in test [1] stood at 4.81 µM.

As to `CCN(CC)CCCn1cc(NC(=O)Nc2cncc(-c3ccccc3)n2)c2ccccc21`, in test [1], the IC50 came out at 8.07 µM.

Consider `CCN(CC)CCCn1cc(NC(=O)Nc2cccc(-c3ccccc3)n2)c2ccccc21`, for which the IC50 in test [1] turned out to be 2.68 µM.

(Values after ChEMBL document CHEMBL1764955, “The synthesis and evaluation of indolylureas as PKCα inhibitors” (Bioorg Med Chem, 2011).)
